Experimental data reported in patent publication US12077503B2, “Substituted cyclic amides and their use as herbicides” (FMC CORPORATION, priority 2015, dated 2024).

How the values were obtained:
Type in all cases: in vivo
[1] = system: barnyardgrass (Echinochloa crus-galli); experiment: Test G Pre-Emergence Protocol; details: Echinochloa crus-galli, pre-emergence, 312 h, evaluated after 13 days; for pest or weed control at 15.625 g/ha: 15.625 g ai/ha; for pest or weed control at 15.625 g/ha / pest or weed control at 250 g/ha: read-out: Barnyardgrass damage rating (100=total damage to plant; 0=no damage to plant); for pest or weed control at 62.5 g/ha: 62.5 g ai/ha, 100=total damage to plant, 0=no damage to plant, read-out: Barnyardgrass damage rating; for pest or weed control at 250 g/ha: 250 g ai/ha
How it was run: (§1)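 Visual injury (0–100) at day 13 after a single pre-emergence spray. Rates: 15.625, 62.5, 250 g/ha in acetone–water 50:50 with 0.5% Tween 20. Growth conditions: 24/16° C, 14 h light, 65% humidity.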

corn (Zea mays) [2] = experiment: Test G Pre-Emergence Protocol; details: Zea mays, pre-emergence, 312 h, evaluated after 13 days; for plant injury at 15.625 g/ha: 15.625 g ai/ha; for plant injury at 15.625 g/ha / plant injury at 250 g/ha: read-out: Corn damage rating (100=total damage to plant; 0=no damage to plant); for plant injury at 62.5 g/ha: 62.5 g ai/ha, 100=total damage to plant, 0=no damage to plant, read-out: Corn damage rating; for plant injury at 250 g/ha: 250 g ai/ha
How it was run: as §1

[3] = system: giant foxtail (Setaria faberi); experiment: Test G Pre-Emergence Protocol; details: Setaria faberi, pre-emergence, 312 h, evaluated after 13 days; for pest or weed control at 15.625 g/ha: 15.625 g ai/ha; for pest or weed control at 15.625 g/ha / pest or weed control at 250 g/ha: read-out: Foxtail, Giant damage rating (100=total damage to plant; 0=no damage to plant); for pest or weed control at 62.5 g/ha: 62.5 g ai/ha, 100=total damage to plant, 0=no damage to plant, read-out: Foxtail, Giant damage rating; for pest or weed control at 250 g/ha: 250 g ai/ha
How it was run: as §1

[4] = system: ivy-leaved morning glory (Ipomoea hederacea); experiment: Test G Pre-Emergence Protocol; details: Ipomoea, pre-emergence, 312 h, evaluated after 13 days; for pest or weed control at 15.625 g/ha: 15.625 g ai/ha; for pest or weed control at 15.625 g/ha / pest or weed control at 250 g/ha: read-out: Morningglory, Ivy-leaved damage rating (100=total damage to plant; 0=no damage to plant); for pest or weed control at 62.5 g/ha: 62.5 g ai/ha, 100=total damage to plant, 0=no damage to plant, read-out: Morningglory, Ivy-leaved damage rating; for pest or weed control at 250 g/ha: 250 g ai/ha
How it was run: as §1

[5] = system: redroot pigweed (Amaranthus retroflexus); experiment: Test G Pre-Emergence Protocol; details: Amaranthus retroflexus, pre-emergence, 312 h, evaluated after 13 days; for pest or weed control at 15.625 g/ha: 15.625 g ai/ha; for pest or weed control at 15.625 g/ha / pest or weed control at 250 g/ha: read-out: Pigweed, Redroot damage rating (100=total damage to plant; 0=no damage to plant); for pest or weed control at 62.5 g/ha: 62.5 g ai/ha, 100=total damage to plant, 0=no damage to plant, read-out: Pigweed, Redroot damage rating; for pest or weed control at 250 g/ha: 250 g ai/ha
How it was run: as §1

[6] = system: velvetleaf (Abutilon theophrasti); experiment: Test G Pre-Emergence Protocol; details: Abutilon theophrasti, pre-emergence, 312 h, evaluated after 13 days; for pest or weed control at 15.625 g/ha: 15.625 g ai/ha; for pest or weed control at 15.625 g/ha / pest or weed control at 250 g/ha: read-out: Velvetleaf damage rating (100=total damage to plant; 0=no damage to plant); for pest or weed control at 62.5 g/ha: 62.5 g ai/ha, 100=total damage to plant, 0=no damage to plant, read-out: Velvetleaf damage rating; for pest or weed control at 250 g/ha: 250 g ai/ha
How it was run: as §1

[7] = system: barnyardgrass (Echinochloa crus-galli); experiment: Test G Post-Emergence Protocol; details: Echinochloa crus-galli, post-emergence, 312 h, read-out: Barnyardgrass damage rating; for pest or weed control at 15.625 g/ha: 15.625 g ai/ha, evaluated after 13 days (100=total damage to plant; 0=no damage to plant); for pest or weed control at 62.5 g/ha: 62.5 g ai/ha; for pest or weed control at 62.5 g/ha / pest or weed control at 250 g/ha: evaluated after 13 days, 100=total damage to plant, 0=no damage to plant; for pest or weed control at 250 g/ha: 250 g ai/ha
How it was run: (§2)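 Sow in soil; grow 8 d (24/16 °C, 14 h light, 65% humidity); spray 15.625/62.5/250 g/ha in acetone:water 50:50 + 0.5% Tween 20; grow on, water twice daily; score damage 0–100 at 13 d.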

corn (Zea mays) [8] = experiment: Test G Post-Emergence Protocol; details: Zea mays, post-emergence, 312 h, read-out: Corn damage rating; for plant injury at 15.625 g/ha: 15.625 g ai/ha, evaluated after 13 days (100=total damage to plant; 0=no damage to plant); for plant injury at 62.5 g/ha: 62.5 g ai/ha; for plant injury at 62.5 g/ha / plant injury at 250 g/ha: evaluated after 13 days, 100=total damage to plant, 0=no damage to plant; for plant injury at 250 g/ha: 250 g ai/ha
How it was run: as §2

[9] = system: giant foxtail (Setaria faberi); experiment: Test G Post-Emergence Protocol; details: Setaria faberi, post-emergence, 312 h, read-out: Foxtail, Giant damage rating; for pest or weed control at 15.625 g/ha: 15.625 g ai/ha, evaluated after 13 days (100=total damage to plant; 0=no damage to plant); for pest or weed control at 62.5 g/ha: 62.5 g ai/ha; for pest or weed control at 62.5 g/ha / pest or weed control at 250 g/ha: evaluated after 13 days, 100=total damage to plant, 0=no damage to plant; for pest or weed control at 250 g/ha: 250 g ai/ha
How it was run: as §2

[10] = system: ivy-leaved morning glory (Ipomoea hederacea); experiment: Test G Post-Emergence Protocol; details: Ipomoea, post-emergence, 312 h, read-out: Morningglory, Ivy-leaved damage rating; for pest or weed control at 15.625 g/ha: 15.625 g ai/ha, evaluated after 13 days (100=total damage to plant; 0=no damage to plant); for pest or weed control at 62.5 g/ha: 62.5 g ai/ha; for pest or weed control at 62.5 g/ha / pest or weed control at 250 g/ha: evaluated after 13 days, 100=total damage to plant, 0=no damage to plant; for pest or weed control at 250 g/ha: 250 g ai/ha
How it was run: as §2

[11] = system: redroot pigweed (Amaranthus retroflexus); experiment: Test G Post-Emergence Protocol; details: Amaranthus retroflexus, post-emergence, 312 h, read-out: Pigweed, Redroot damage rating; for pest or weed control at 15.625 g/ha: 15.625 g ai/ha, evaluated after 13 days (100=total damage to plant; 0=no damage to plant); for pest or weed control at 62.5 g/ha: 62.5 g ai/ha; for pest or weed control at 62.5 g/ha / pest or weed control at 250 g/ha: evaluated after 13 days, 100=total damage to plant, 0=no damage to plant; for pest or weed control at 250 g/ha: 250 g ai/ha
How it was run: as §2

[12] = system: velvetleaf (Abutilon theophrasti); experiment: Test G Post-Emergence Protocol; details: Abutilon theophrasti, post-emergence, 312 h, read-out: Velvetleaf damage rating; for pest or weed control at 15.625 g/ha: 15.625 g ai/ha, evaluated after 13 days (100=total damage to plant; 0=no damage to plant); for pest or weed control at 62.5 g/ha: 62.5 g ai/ha; for pest or weed control at 62.5 g/ha / pest or weed control at 250 g/ha: evaluated after 13 days, 100=total damage to plant, 0=no damage to plant; for pest or weed control at 250 g/ha: 250 g ai/ha
How it was run: as §2

Structure (SMILES)	pest or weed control at 15.625 g/ha [1]	pest or weed control at 62.5 g/ha [1]	pest or weed control at 250 g/ha [1]	plant injury at 15.625 g/ha (corn (Zea mays) [2])	plant injury at 62.5 g/ha (corn (Zea mays) [2])	plant injury at 250 g/ha (corn (Zea mays) [2])	pest or weed control at 15.625 g/ha [3]	pest or weed control at 62.5 g/ha [3]	pest or weed control at 250 g/ha [3]	pest or weed control at 15.625 g/ha [4]	pest or weed control at 62.5 g/ha [4]	pest or weed control at 250 g/ha [4]	pest or weed control at 15.625 g/ha [5]	pest or weed control at 62.5 g/ha [5]	pest or weed control at 250 g/ha [5]	pest or weed control at 15.625 g/ha [6]	pest or weed control at 62.5 g/ha [6]	pest or weed control at 250 g/ha [6]	pest or weed control at 15.625 g/ha [7]	pest or weed control at 62.5 g/ha [7]	also measured
CN1C[C@H](c2cccc(C(F)F)c2)[C@@H](C(=O)Nc2ccccc2S(C)(=O)=O)C1=O (racemic) [Compound 1800]	10%	40%	80%	0%	0%	0%	20%	70%	90%	0%	0%	0%	10%	20%	10%	0%	10%	0%	0%	10%	pest or weed control at 250 g/ha [7]: 80%; plant injury at 15.625 g/ha (corn (Zea mays) [8]): 0%; plant injury at 62.5 g/ha (corn (Zea mays) [8]): 0%; plant injury at 250 g/ha (corn (Zea mays) [8]): 0%; pest or weed control at 15.625 g/ha [9]: 0%; pest or weed control at 62.5 g/ha [9]: 20%; pest or weed control at 250 g/ha [9]: 70%; pest or weed control at 15.625 g/ha [10]: 0%; pest or weed control at 62.5 g/ha [10]: 10%; pest or weed control at 250 g/ha [10]: 20%; pest or weed control at 15.625 g/ha [11]: 0%; pest or weed control at 62.5 g/ha [11]: 10%; pest or weed control at 250 g/ha [11]: 10%; pest or weed control at 15.625 g/ha [12]: 0%; pest or weed control at 62.5 g/ha [12]: 0%; pest or weed control at 250 g/ha [12]: 0%
CCOc1ccc([C@@H]2CN(C)C(=O)[C@H]2C(=O)Nc2cccc(F)c2C)cc1Cl (racemic) [Compound 1803]	20%	70%	90%	0%	0%	30%	70%	90%	90%	0%	0%	0%	30%	0%	40%	10%	0%	20%	0%	0%	pest or weed control at 250 g/ha [7]: 70%; plant injury at 15.625 g/ha (corn (Zea mays) [8]): 0%; plant injury at 62.5 g/ha (corn (Zea mays) [8]): 0%; plant injury at 250 g/ha (corn (Zea mays) [8]): 0%; pest or weed control at 15.625 g/ha [9]: 20%; pest or weed control at 62.5 g/ha [9]: 70%; pest or weed control at 250 g/ha [9]: 80%; pest or weed control at 15.625 g/ha [10]: 0%; pest or weed control at 62.5 g/ha [10]: 10%; pest or weed control at 250 g/ha [10]: 10%; pest or weed control at 15.625 g/ha [11]: 0%; pest or weed control at 62.5 g/ha [11]: 0%; pest or weed control at 250 g/ha [11]: 20%; pest or weed control at 15.625 g/ha [12]: 0%; pest or weed control at 62.5 g/ha [12]: 0%; pest or weed control at 250 g/ha [12]: 0%
CN1C[C@H](c2ccc(C(F)(F)F)cc2)[C@@H](C(=O)Nc2ccc[n+]([O-])c2F)C1=O (racemic) [Compound 1815]	0%	0%	0%	0%	0%	0%	0%	0%	40%	0%	0%	0%	0%	0%	0%	0%	0%	0%	0%	0%	pest or weed control at 250 g/ha [7]: 0%; plant injury at 15.625 g/ha (corn (Zea mays) [8]): 0%; plant injury at 62.5 g/ha (corn (Zea mays) [8]): 0%; plant injury at 250 g/ha (corn (Zea mays) [8]): 0%; pest or weed control at 15.625 g/ha [9]: 0%; pest or weed control at 62.5 g/ha [9]: 0%; pest or weed control at 250 g/ha [9]: 10%; pest or weed control at 15.625 g/ha [10]: 0%; pest or weed control at 62.5 g/ha [10]: 0%; pest or weed control at 250 g/ha [10]: 0%; pest or weed control at 15.625 g/ha [11]: 0%; pest or weed control at 62.5 g/ha [11]: 0%; pest or weed control at 250 g/ha [11]: 0%; pest or weed control at 15.625 g/ha [12]: 0%; pest or weed control at 62.5 g/ha [12]: 0%; pest or weed control at 250 g/ha [12]: 0%
